Test results reported in patent US20230414557A1, “NEW THERAPY CONCEPT FOR THE TREATMENT OF CORONA INFECTIONS, ESPECIALLY COVID-19 INFECTIONS” (priority 2020, published 2023).

Columns and labels:
IL-1beta = assay: LPS-stimulated production of IL-1beta in human monocytes in vitro (ELISA); format: cell-based; settings: for IL-1beta / effect vs. control inhibition (%): LPS-stimulated human monocytes
Procedure: In cell culture supernatants, the production of IL-1beta is determined by ELISA (Cayman Chemical, Ann Arbor, Michigan, USA).

[1] = system: superoxide production (O2^−-production); assay: PMA-stimulated superoxide production (O2−-production) of human monocytes in vitro, INT formazan; format: cell-based; settings: RPMI-1640, 20 hours
NO-production = NO-production in stimulated human monocytes in vitro; format: cell-based; settings: 20 hours
corona viruses = format: cell-based, human
COVID-19 [2] = assay: thrombocytes from patients suffering from COVID-19 incubated with 1,8-cineole; format: cell-based, human; settings: thrombocytes from COVID-19 patients incubated with 1,8-cineole
Text: This antiviral effect of 1,8-cineole in COVID-19 infections is completely unexpected.

IL-8 (interleukin-8) = assay: production of IL-8 in human monocytes of volunteers; format: cell-based; settings: 1,8-cineole alone
[3] = system: TNF-alpha (tumor necrosis factor-alpha); assay: production of TNF-alpha in human monocytes of volunteers; format: cell-based; settings: 1,8-cineole alone
[4] = system: superoxide dismutases (SOD); assay: activity of superoxide dismutases; format: cell-based
hydrogen peroxide (H2O2) = assay: production of hydrogen peroxide; format: cell-based; settings: even at lower concentrations and in the therapeutic range
[5] = cited from earlier work
COVID-19 [6] = settings: human, in vivo; cited from earlier work
[7] = 1,8-cineole 0.0015 μg/ml (10^−8 mol/l)
[8] = 1,8-cineole 1.2 μg/ml (8 × 10^−6 mol/l)
[9] = 1,8-cineole 1.5 μg/ml (10^−5 mol/l)
[10] = 1,8-cineole 3.0 μg/ml (2 × 10^−5 mol/l)

CC12CCC(CC1)C(C)(C)O2 [1,8-cineole, 1,3,3-trimethyl-2-oxabicyclo[2.2.2]octane]
monocyte IL-1beta production, result in words (IL-1beta; 10^−6 mol/l, compared with the control): significantly inhibited | IL-1beta (IL-1beta; 10^−6 mol/l, 20 hours): 3548 ± 600 pg/5 × 10^−4 cells | effect vs. control inhibition (%) (IL-1beta; 10^−6 mol/l, 20 hours): 32.4 ± 17% | INT-formazan [1, 7]: 5364 ± 229 nmol/10^5 | comparison to control (%) [1, 7]: +27.6 ± 4% | INT-formazan [1, 8]: 4099 ± 234 nmol/10^5 | comparison to control (%) [1, 8]: −2.5 ± 6% | INT-formazan [1, 9]: 2438 ± 389 nmol/10^5 | comparison to control (%) [1, 9]: −42 ± 16% | INT-formazan [1, 10]: 634 ± 139 nmol/10^5 | comparison to control (%) [1, 10]: −84.9 ± 22% | NO-production (NO-production; low subtherapeutic concentrations of 1,8-cineole): inhibit NO-production | NO-production (NO-production; therapeutic dose range of 1,8-cineole): strong or significant stimulatory effects on NO-production | outbreak of infection, especially hypercytokinemia (corona viruses): prevented or reduced | virus replication and production of hyperinflammatory cytokines in thrombocytes (corona viruses; healthy thrombocytes incubated with COVID-19, subsequently incubation with 1,8-cineole): inhibited | course of infection, especially hypercytokinemia (COVID-19 [2]): prevented or attenuated | production of IL-8 (IL-8 (interleukin-8)): significant inhibitory effect | production of TNF-alpha [3]: significant inhibitory effect | superoxide dismutase activity [4]: partially inhibited | production of H2O2 (hydrogen peroxide (H2O2)): inhibits | solubility in water [5]: insoluble in water

CCN(CC)CCCC(C)Nc1ccnc2cc(Cl)ccc12 (stereo not shown) [Chloroquine]
efficacy in COVID-19 (COVID-19 [6]): no evidence of efficacy

C[C@@H]1C[C@H]2[C@@H]3CCC4=CC(=O)C=C[C@]4(C)[C@@]3(F)[C@@H](O)C[C@]2(C)[C@@]1(O)C(=O)CO [dexamethasone, 9-fluoro-16alpha-methylprednisolone]
IL-1beta (IL-1beta; dex. 10^−9 mol/l): 2655 ± 546 pg/5 × 10^−4 cells | effect vs. control inhibition (%) (IL-1beta; dex. 10^−9 mol/l): 49.5 ± 20% | IL-1beta (IL-1beta; dex. 10^−12 mol/l): 5245 ± 1027 pg/5 × 10^−4 cells | effect vs. control inhibition (%) (IL-1beta; dex. 10^−12 mol/l): 0.1 ± 19%

CCN(CCO)CCCC(C)Nc1ccnc2cc(Cl)ccc12 (stereo not shown) [hydroxychloroquine]
efficacy in COVID-19 (COVID-19 [6]): no evidence of efficacy

Tocilizumab: monoclonal antibody approved for rheumatoid arthritis and cytokine release syndrome
efficacy in COVID-19 (COVID-19 [6]): ineffective
